{"source": "paper PMC4822253", "about": "“Inhibition of BMP and of TGFβ receptors downregulates expression of XIAP and TAK1 leading to lung cancer cell death” (Molecular Cancer, 2016)", "key": {"[1]": {"system": "H1299 cells", "assay": "Cell counts (live cells, trypan blue)", "format": "cell-based", "method": "(§1) Cells were plated into 6 well plates at 10^5 cells per well and treated with 1 μM DMSO or antagonist for 7 days. The cells were detached with trypsin, stained with trypan blue, and the number of live cells counted using a hemocytometer."}, "[2]": {"system": "A549 cells", "assay": "Cell counts (live cells, trypan blue)", "format": "cell-based", "settings": "compound alone, 7 days", "method": "as §1"}, "[3]": {"assay": "Plasma protein binding by equilibrium dialysis", "format": "in vitro ADME", "settings": "mouse plasma"}, "[4]": {"target": "T1, BMPRII (Homo sapiens, UniProt Q13873)", "T1 construct": "purchased Reaction Biology Corporation (Malvern, PA)", "T1 sequence (Q13873 27-1038)": "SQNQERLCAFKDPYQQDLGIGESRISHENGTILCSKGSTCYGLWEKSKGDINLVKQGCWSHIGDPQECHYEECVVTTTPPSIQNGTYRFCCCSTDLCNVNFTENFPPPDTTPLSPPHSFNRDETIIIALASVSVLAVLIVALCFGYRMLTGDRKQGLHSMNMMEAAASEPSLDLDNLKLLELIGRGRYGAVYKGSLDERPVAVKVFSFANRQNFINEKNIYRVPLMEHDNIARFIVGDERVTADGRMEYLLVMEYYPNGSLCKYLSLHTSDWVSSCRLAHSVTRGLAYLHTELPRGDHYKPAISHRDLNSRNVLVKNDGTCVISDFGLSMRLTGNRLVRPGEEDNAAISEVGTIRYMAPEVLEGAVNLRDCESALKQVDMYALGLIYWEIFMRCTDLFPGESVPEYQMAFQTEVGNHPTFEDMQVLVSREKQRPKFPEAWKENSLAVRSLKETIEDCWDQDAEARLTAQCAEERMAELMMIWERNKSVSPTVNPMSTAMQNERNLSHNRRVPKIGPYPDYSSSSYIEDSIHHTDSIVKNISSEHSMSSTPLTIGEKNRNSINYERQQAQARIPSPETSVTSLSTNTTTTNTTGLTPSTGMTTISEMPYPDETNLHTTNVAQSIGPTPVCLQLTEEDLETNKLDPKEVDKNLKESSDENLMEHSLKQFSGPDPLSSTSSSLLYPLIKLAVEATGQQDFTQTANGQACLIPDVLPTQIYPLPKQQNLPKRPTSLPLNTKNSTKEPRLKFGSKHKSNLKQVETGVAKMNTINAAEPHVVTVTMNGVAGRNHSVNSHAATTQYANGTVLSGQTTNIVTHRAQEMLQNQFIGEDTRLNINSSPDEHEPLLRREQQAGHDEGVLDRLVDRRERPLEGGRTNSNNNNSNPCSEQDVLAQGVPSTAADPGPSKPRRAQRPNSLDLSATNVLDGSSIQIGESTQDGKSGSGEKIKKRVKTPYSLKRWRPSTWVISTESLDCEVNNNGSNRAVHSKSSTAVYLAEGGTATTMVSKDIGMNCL", "assay": "In vitro kinase IC50", "format": "biochemical", "settings": "kinase activity; ATP 10 Micromolar; 10-point, duplicate", "description": "(§2) The ATP concentration was 10 Micromolar."}, "[5]": {"target": "T2, TGFbetaR2 (Homo sapiens, UniProt P37173)", "T2 construct": "purchased Reaction Biology Corporation (Malvern, PA)", "T2 sequence (P37173 23-567)": "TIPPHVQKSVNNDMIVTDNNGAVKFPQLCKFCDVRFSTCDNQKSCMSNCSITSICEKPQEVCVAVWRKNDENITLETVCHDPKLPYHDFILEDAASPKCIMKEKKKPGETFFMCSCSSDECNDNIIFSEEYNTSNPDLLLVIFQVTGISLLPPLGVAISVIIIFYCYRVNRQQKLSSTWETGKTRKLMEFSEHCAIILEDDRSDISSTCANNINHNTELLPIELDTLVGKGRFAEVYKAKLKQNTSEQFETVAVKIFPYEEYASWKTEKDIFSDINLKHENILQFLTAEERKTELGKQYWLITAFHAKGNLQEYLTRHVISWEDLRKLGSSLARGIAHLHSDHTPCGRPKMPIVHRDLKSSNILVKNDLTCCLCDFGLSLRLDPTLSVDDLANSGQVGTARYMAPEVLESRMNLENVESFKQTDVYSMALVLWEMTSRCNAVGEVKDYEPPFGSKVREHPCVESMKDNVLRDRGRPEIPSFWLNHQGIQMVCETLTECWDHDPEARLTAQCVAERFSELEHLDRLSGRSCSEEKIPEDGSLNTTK", "assay": "In vitro kinase IC50", "format": "biochemical", "settings": "kinase activity; ATP 10 Micromolar; 10-point, duplicate", "description": "as §2"}, "[6]": {"system": "H1299 cells", "assay": "Cell death assay (ethidium bromide uptake)", "format": "cell-based", "method": "(§3) Cells were plated in 6 well plates with 10^6 cells per well. Three days following treatment with inhibitor(s) and/or transfection the adherent and floating cells were harvested and incubated with 0.1 mg/ml of ethidium bromide. Cells that die by necrosis or apoptosis lose membrane integrity and take up ethidium bromide. Immediately after staining approximately 100 cells were counted and the percentage of cells that took up ethidium bromide was determined."}, "[7]": {"system": "A549 cells", "assay": "Cell death assay (ethidium bromide uptake)", "format": "cell-based", "settings": "after 3 days", "method": "as §3"}, "[8]": {"target": "T3, Alk2/ACVRR1 (Homo sapiens, UniProt Q04771)", "T3 sequence (Q04771 21-509)": "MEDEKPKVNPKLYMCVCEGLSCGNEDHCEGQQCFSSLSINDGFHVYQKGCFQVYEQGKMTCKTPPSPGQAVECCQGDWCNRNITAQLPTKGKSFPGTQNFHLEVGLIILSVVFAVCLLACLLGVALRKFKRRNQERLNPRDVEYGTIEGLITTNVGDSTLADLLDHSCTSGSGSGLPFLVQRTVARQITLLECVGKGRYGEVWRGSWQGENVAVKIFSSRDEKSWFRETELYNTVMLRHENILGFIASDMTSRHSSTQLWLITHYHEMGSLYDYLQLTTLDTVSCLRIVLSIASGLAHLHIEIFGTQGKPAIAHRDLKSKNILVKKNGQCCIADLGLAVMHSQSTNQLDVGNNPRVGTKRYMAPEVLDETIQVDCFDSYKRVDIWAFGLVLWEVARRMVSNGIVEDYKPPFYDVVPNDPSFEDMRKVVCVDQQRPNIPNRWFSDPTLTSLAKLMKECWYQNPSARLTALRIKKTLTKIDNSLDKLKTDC", "design": "purchased Reaction Biology Corporation (Malvern, PA)", "settings": "reported; read-out: IC50 for the BMP type I receptor Alk2; cited from earlier work"}, "[9]": {"assay": "Pharmacokinetics in mice", "format": "in vivo", "settings": "BALB/c mice; 2 mg/kg tail vein injection and 10 mg/kg p.o. study", "method": "Three mice at each time point were dosed with a 2 mg/kg tail vein injection and 10 mg/kg p.o. Blood samples were taken 0.08, 0.25, 0.5, 1, 2, 4, 8, 12, and 24 h (i.v.) and 0.25, 0.5, 1, 2, 4, 6, 8, 12, and 24 h (p.o.). Plasma half-life, clearance, and volume of distribution were then determined."}}, "data": [{"smiles": "c1ccc2c(-c3cnn4cc(-c5ccc(OCCN6CCOCC6)cc5)cnc34)ccnc2c1", "note": "[DMH2]", "values": [{"measurement": "growth suppression compared to DMH1 and LDN", "setting": "[1]", "result": "significantly greater growth suppression"}, {"measurement": "growth (cell counts)", "setting": "[1]; compound alone, 7 days", "result": "significant growth suppression"}, {"measurement": "growth (cell counts)", "setting": "[2]", "result": "growth suppression"}, {"measurement": "percent binding plasma proteins", "setting": "[3]", "result": 98.2, "unit": "% +/−1.5"}, {"measurement": "IC50", "setting": "[4]", "result": 7.95, "unit": "µM"}, {"measurement": "IC50", "setting": "[5]", "result": 193, "unit": "nM"}, {"measurement": "cell death compared to DMH1 and LDN", "setting": "[6]; H1299 cells", "result": "significantly greater"}, {"measurement": "cell death in cells expressing mutant XIAP", "setting": "[6]; H1299 cells stably expressing mutant XIAP, 3 days", "result": "resistant to cell death"}, {"measurement": "cell death", "setting": "[6]; H1299 cells, after 3 days", "result": "significant cells death"}, {"measurement": "cell death", "setting": "[7]", "result": "significant cells death"}, {"measurement": "IC50", "setting": "[8]", "result": 42.8, "unit": "nM"}, {"measurement": "elimination half-life", "setting": "[9]", "result": 57, "unit": "min"}, {"measurement": "systemic plasma clearance", "setting": "[9]", "result": 68.45, "unit": "mL/min/kg"}]}]}
